Reference: ChEMBL document CHEMBL4177711, “Synthesis, in vitro and in silico evaluation of novel trans-stilbene analogues as potential COX-2 inhibitors” (Bioorg Med Chem, 2018)

How the values were obtained:
[1] = target: T1, Prostaglandin G/H synthase 2 (Homo sapiens) (UniProt P35354); test: Inhibition of human COX2 assessed as reduction in PGF2alpha level at 100 uM using arachidonic acid as substrate preincubated for 10 mins followed by substrate addition by ELISA relative to control
T1 sequence (whole entry): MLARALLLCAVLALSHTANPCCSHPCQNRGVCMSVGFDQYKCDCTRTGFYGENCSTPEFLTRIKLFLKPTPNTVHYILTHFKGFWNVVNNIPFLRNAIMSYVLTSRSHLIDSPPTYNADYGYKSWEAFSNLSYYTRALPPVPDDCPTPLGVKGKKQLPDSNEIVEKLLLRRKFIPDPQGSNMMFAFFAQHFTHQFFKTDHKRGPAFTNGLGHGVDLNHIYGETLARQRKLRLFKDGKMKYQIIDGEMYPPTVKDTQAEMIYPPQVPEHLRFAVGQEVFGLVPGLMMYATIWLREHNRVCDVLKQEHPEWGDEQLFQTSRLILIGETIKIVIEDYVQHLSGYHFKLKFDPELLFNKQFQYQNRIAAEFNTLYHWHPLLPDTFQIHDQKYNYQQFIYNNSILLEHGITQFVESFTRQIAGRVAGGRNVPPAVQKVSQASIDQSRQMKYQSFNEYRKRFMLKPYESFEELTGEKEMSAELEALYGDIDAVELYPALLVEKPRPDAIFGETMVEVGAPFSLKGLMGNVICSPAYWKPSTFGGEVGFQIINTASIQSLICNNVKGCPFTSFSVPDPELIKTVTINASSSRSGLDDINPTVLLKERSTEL

[2] = target: T2, COX1 (Prostaglandin G/H synthase 1) (Ovis aries, UniProt P05979); test: Inhibition of ovine COX1 assessed as reduction in PGF2alpha level at 100 uM using arachidonic acid as substrate preincubated for 10 mins followed by substrate addition by ELISA relative to control; conditions: sheep, ovine COX1 enzyme, probe arachidonic acid
T2 sequence (P05979 whole entry): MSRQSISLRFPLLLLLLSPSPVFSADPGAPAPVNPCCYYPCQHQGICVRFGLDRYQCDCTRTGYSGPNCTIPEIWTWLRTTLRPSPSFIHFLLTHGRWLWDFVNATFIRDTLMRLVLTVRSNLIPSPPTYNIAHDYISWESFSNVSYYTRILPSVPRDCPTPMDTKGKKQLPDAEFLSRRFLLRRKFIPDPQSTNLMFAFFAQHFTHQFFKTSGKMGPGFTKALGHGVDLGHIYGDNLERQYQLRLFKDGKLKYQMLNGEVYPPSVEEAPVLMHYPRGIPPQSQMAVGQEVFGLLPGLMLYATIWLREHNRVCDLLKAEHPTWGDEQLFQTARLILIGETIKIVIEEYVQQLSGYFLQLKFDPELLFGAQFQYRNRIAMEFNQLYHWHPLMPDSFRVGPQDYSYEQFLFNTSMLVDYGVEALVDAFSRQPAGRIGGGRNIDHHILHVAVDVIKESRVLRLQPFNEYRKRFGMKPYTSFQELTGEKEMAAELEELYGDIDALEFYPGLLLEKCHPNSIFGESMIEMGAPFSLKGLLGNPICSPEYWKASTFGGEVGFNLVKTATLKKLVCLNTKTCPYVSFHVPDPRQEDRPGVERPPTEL

[3] = target: T3, Prostaglandin G/H synthase 1 (Ovis aries, UniProt P05979); test: Inhibition of ovine COX1 assessed as reduction in PGF2alpha level using arachidonic acid as substrate preincubated for 10 mins followed by substrate addition by ELISA
T3 sequence (P05979 whole entry): T2 sequence (P05979 whole entry)

[4] = Selectivity index, ratio of IC50 for ovine COX1 to IC50 for human COX2
[5] = target: T4, Prostaglandin G/H synthase 2 (Homo sapiens, UniProt P35354); test: Inhibition of human COX2 assessed as reduction in PGF2alpha level using arachidonic acid as substrate preincubated for 10 mins followed by substrate addition by ELISA
T4 sequence (P35354 whole entry): T1 sequence (whole entry)

[6] = target: T1, Prostaglandin G/H synthase 2 (Homo sapiens); test: Inhibition of COX2 in human MCF7 cells assessed as reduction in PGE2 level at 6.25 uM after 72 hrs by ELISA relative to control; format: cell-based
MCF7 [7] = test: Antiproliferative activity against human MCF7 cells up to 100 uM after 72 hrs by MTT assay relative to control; format: functional
[8] = target: T1, Prostaglandin G/H synthase 2 (Homo sapiens); test: Inhibition of COX2 in human MCF7 cells assessed as reduction in PGE2 level after 72 hrs by ELISA; format: cell-based
[9] = target: T1, Prostaglandin G/H synthase 2 (Homo sapiens); test: Inhibition of COX2 in human MCF7 cells assessed as reduction in PGE2 level at 12.5 uM after 72 hrs by ELISA relative to control; format: cell-based
[10] = Solubility of the compound in DMEM culture medium at >12.5 uM; format: physicochemical
MCF7 [11] = test: Antiproliferative activity against human MCF7 cells after 72 hrs by MTT assay; conditions: MCF7, 72 h

SMILES	inhibition [1]	inhibition at 100 µM [2]	further results
O=[N+]([O-])c1ccc(/C=C/c2ccc(OCc3ccccc3)cc2)cc1	15.7%	3.36%	
CC(=O)Oc1cccc(/C=C/c2ccc([N+](=O)[O-])cc2[N+](=O)[O-])c1	34.1%	28.3%	
Oc1ccc(/C=C/c2ccncc2)cc1	8.88%	17.3%	
CCOc1cccc(/C=C/c2ccc([N+](=O)[O-])cc2[N+](=O)[O-])c1	27.5%	15.4%	
CCOc1cccc(/C=C/c2ccc([N+](=O)[O-])cc2)c1	23.4%	2.42%	
COC(=O)COc1ccc(/C=C/c2ccc([N+](=O)[O-])cc2)cc1	66.3%	59.6%	IC50 [3]: 40.8 µM; Ratio IC50 [4]: 4.13; IC50 [5]: 7.46 µM
O=[N+]([O-])c1ccc(/C=C/c2cc(O)c(O)c(O)c2)cc1			inhibition [6]: 24.1%; Activity (MCF7 [7]): 30%; inhibition [8]: Dose-dependent effect; inhibition [9]: 33.9%; IC50 [3]: 17.5 µM; Ratio IC50 [4]: 62.8; solubility [10]: Insoluble; IC50 [5]: 0.279 µM
Cc1ccc(-c2cc(C(F)(F)F)nn2-c2ccc(S(N)(=O)=O)cc2)cc1 [CELECOXIB]			IC50 (MCF7 [11]): 49.7 µM
O=[N+]([O-])c1ccc(/C=C/c2ccc(O)cc2)cc1	37.1%	22.2%	
CCOc1ccc(/C=C/c2ccccc2)cc1	40.8%	32.3%	
O=[N+]([O-])c1ccc(/C=C/c2ccccc2)cc1	35%	16.3%	
CCOc1ccc(/C=C/c2ccc([N+](=O)[O-])cc2[N+](=O)[O-])cc1	40.4%	14.1%	
CCOc1ccc(/C=C/c2ccc([N+](=O)[O-])cc2)cc1	77.4%	54.6%	IC50 [3]: 85 µM; Ratio IC50 [4]: 21.2; IC50 [5]: 4.02 µM
COc1cc(/C=C/c2ccc([N+](=O)[O-])cc2)cc(OC)c1OC			Activity (MCF7 [7]): 30%; IC50 [3]: 2.67 µM; Ratio IC50 [4]: 1.23; IC50 [5]: 2.17 µM
CC(=O)Oc1ccc(/C=C/c2ccc(OC(C)=O)cc2)cc1	23.4%	3.16%	
Oc1ccc(/C=C/c2ccc(Cl)cc2)cc1	3.73%	9.64%	
Oc1ccc(/C=C/c2ccc(O)cc2)cc1 [TRANS-4,4'-DIHYDROXYSTILBENE]	11.1%	4.92%	
Oc1cccc(/C=C/c2ccncc2)c1	20.4%	23.1%	
Oc1ccc(/C=C/c2cc[n+](Cc3ccccc3Cl)cc2)cc1	10.2%	1.57%	
Oc1ccc(/C=C/c2cc[n+](Cc3cccc(Cl)c3)cc2)cc1	21.9%	11.2%	
O=[N+]([O-])c1ccc(/C=C/c2ccc(O)cc2)c([N+](=O)[O-])c1	29%	6.09%	
CCOc1ccc(/C=C/c2ccc(Cl)cc2)cc1	12.3%	39.2%	
COc1ccc(/C=C/c2ccc([N+](=O)[O-])cc2)cc1OC			IC50 [3]: 0.659 µM; Ratio IC50 [4]: 0.14; IC50 [5]: 4.69 µM
CC(=O)Oc1ccc(/C=C/c2ccccc2)cc1	39.9%	20.5%	
Oc1ccc(/C=C/c2cc[n+](Cc3ccc(Cl)cc3)cc2)cc1	5.38%	15.7%	
COC(=O)COc1ccc(/C=C/c2ccc(OCC(=O)OC)cc2)cc1	44.5%	28.5%	
Oc1ccccc1/C=C/c1ccncc1	8.56%	9.71%	
Oc1ccc(/C=C/c2ccc(Br)cc2)cc1	14.3%	6.8%	
COC(=O)COc1ccc(/C=C/c2ccc(Cl)cc2)cc1	71.8%	59.3%	IC50 [3]: 41 µM; Ratio IC50 [4]: 5.45; IC50 [5]: 7.52 µM
